Experiments:
[1] = test system: Pyrenophora teres; assay: In vivo preventive test on Pyrenophora teres (net blotch on barley); details: 240 h, 500 ppm of active ingredient, preventive spray on barley, evaluated 10 days after inoculation, read-out: efficacy
Experimental: (§1) The active ingredients were made soluble and homogenized in a mixture of Dimethyl sulfoxide/Acetone//Tween® 80 and then diluted in water to the desired concentration. The young plants of barley were treated by spraying the active ingredient prepared as described above. Control plants were treated only with an aqueous solution of Acetone/Dimethyl sulfoxide/Tween® 80. After 24 hours, the plants were contaminated by spraying the leaves with an aqueous suspension of Pyrenophora teres spores.

[2] = test system: Septoria tritici; assay: Septoria tritici in vitro cell test; assay type: cell-based; details: Zymoseptoria tritici, 168 h; 20 ppm of active ingredient; liquid culture, 7 days incubation; read-out: efficacy (inhibition of fungal growth)
Experimental: • Solvent: DMSO • Culture medium: 1 g KH2PO4 (VWR), 1 g K2HPO4 (VWR), 0.5 g Urea (VWR), 3 g KNO3 (Prolabo), 10 g saccharose (VWR), 0.5 g MgSO4, 7H2O (Sigma), 0.07 g CaCl2, 2H2O (Prolabo), 0.2 mg MnSO4, H2O (Sigma), 0.6 mg CuSO4, 5H2O (Sigma), 7.9 mg ZnSO4, 7H2O (Sigma), 0.1 mg H3BO3 (Merck), 0.14 mg NaMoO4, 2H2O (Sigma), 2 mg thiamine (Sigma), 0.1 mg biotine (VWR), 4 mg FeSO4, 7H2O (Sigma), QSP 1 liter • Inoculum: spore suspension Fungicides were solubilized in DMSO and the solution used to prepare the required range of concentrations. […] A spore suspension of S. tritici was prepared and diluted to the desired spore density. Fungicides were evaluated for their ability to inhibit spore germination and mycelium growth in liquid culture assay. The compounds were added in the desired concentration to the culture medium with spores. […] Inhibition of fungal growth was determined by comparing the absorbance values in wells containing the fungicides with the absorbance in control wells without fungicides.

[3] = test system: Botrytis cinerea; assay: In vivo preventive test on Botrytis cinerea (grey mould); details: 500 ppm of active ingredient, preventive spray on gherkin or cabbage, evaluated 4 to 5 days after inoculation, read-out: efficacy
Experimental: as §1, with “gherkin or cabbage” for “barley”, “Botrytis cinerea” for “Pyrenophora teres”

[4] = test system: Alternaria brassicae; assay: In vivo preventive test on Alternaria brassicae (leaf spot on radish or cabbage); details: 144 h, 500 ppm of active ingredient, preventive spray on radish or cabbage, evaluated 6 days after inoculation, read-out: efficacy
Experimental: as §1, with “radish or cabbage” for “barley”, “Alternaria brassicae” for “Pyrenophora teres”

[5] = test system: Pyricularia Oryzae; assay: microbe, parasite or virus in culture; assay type: cell-based; details: 120 h, read-out: efficacy (inhibition of fungal growth)
[6] = test system: Colletotrichum lindemuthianum; assay: In vivo preventive test on Colletotrichum lindemuthianum (leaf spot on bean); details: 168 h, 500 ppm of active ingredient, preventive spray on bean, evaluated 7 days after inoculation, read-out: efficacy
Experimental: as §1, with “bean” for “barley”, “Colletotrichum lindemuthianum” for “Pyrenophora teres”

[7] = test system: Alternaria alternata; assay: Alternaria alternata in vitro cell test; assay type: cell-based; details: 120 h, 20 ppm of active ingredient, liquid culture, 5 days incubation, read-out: efficacy (inhibition of fungal growth)
Experimental: (§2) • Solvent: DMSO • Culture medium: 14.6 g anhydrous D-glucose (VWR), 7.1 g Mycological Peptone (Oxoid), 1.4 g granulated Yeast Extract (Merck), QSP 1 liter • Inoculum: spores suspension Fungicides were solubilized in DMSO and the solution used to prepare the required range of concentrations. […] A spore suspension of A. alternata was prepared and diluted to the desired spore density. Fungicides were evaluated for their ability to inhibit spore germination and mycelium growth in liquid culture assay. The compounds were added in the desired concentration to the culture medium with spores. After 5 days incubation, fungi-toxicity of compounds was determined by spectrometric measurement of mycelium growth. Inhibition of fungal growth was determined by comparing the absorbance values in wells containing the fungicides with the absorbance in control wells without fungicides.

[8] = test system: Sphaerotheca fuliginea; assay: In vivo preventive test on Sphaerotheca fuliginea (powdery mildew on cucurbits); details: Podosphaera fuliginea, 192 h; 500 ppm of active ingredient; preventive spray on gherkin; evaluated 8 days after inoculation; read-out: efficacy
Experimental: as §1, with “gherkin” for “barley”, “Sphaerotheca fuliginea” for “Pyrenophora teres”

[9] = Measurement of LogP values by HPLC on reversed phase columns (EEC directive 79/831 Annex V.A8); assay type: physicochemical; details: method [a]: LC-UV, acidic range, 0.1% formic acid in water and acetonitrile; compounds of formula (I-1), Table 1
Experimental: Calibration was done with straight-chain alkan2-ones (with 3 to 16 carbon atoms) with known LogP values (measurement of LogP values using retention times with linear interpolation between successive alkanones). Lambda-max-values were determined using UV-spectra from 200 nm to 400 nm and the peak values of the chromatographic signals

[10] = test system: Colletotrichum lindemuthianum; assay: Colletotrichum lindemuthianum in vitro cell test; assay type: cell-based; details: 144 h, 20 ppm of active ingredient, liquid culture, 6 days incubation, read-out: efficacy (inhibition of fungal growth)
Experimental: as §2, with “of C. lindemuthianum” for “of A. alternata”, “inhibit spores” for “inhibit spore”, “After 6” for “After 5”

[11] = test system: Fusarium culmorum; assay: Fusarium culmorum in vitro cell test; assay type: cell-based; details: 96 h, 20 ppm of active ingredient, liquid culture, 4 days incubation, read-out: efficacy (inhibition of fungal growth)
Experimental: • Solvent: DMSO • Culture medium: 14.6 g anhydrous D-glucose (VWR), 7.1 g Mycological Peptone (Oxoid), 1.4 g granulated Yeast Extract (Merck), QSP 1 liter • Inoculum: spore suspension • Fungicides were solubilized in DMSO and the solution used to prepare the required range of concentrations. The final concentration of DMSO used in the assay was ≤1%.
A spore suspension of F. culmorum was prepared and diluted to the desired spore density.
Fungicides were evaluated for their ability to inhibit spore germination and mycelium growth in liquid culture assay. The compounds were added in the desired concentration to the culture medium with spores. After 4 days incubation, fungi-toxicity of compounds was determined by spectrometric measurement of mycelium growth. Inhibition of fungal growth was determined by comparing the absorbance values in wells containing the fungicides with the absorbance in control wells without fungicides.

Structure (SMILES)	pest or weed control at 500 ppm [1]	inhibition at 20 ppm [2]	pest or weed control at 500 ppm [3]	pest or weed control at 500 ppm [4]	inhibition at 20 ppm [5]	pest or weed control at 500 ppm [6]	inhibition at 20 ppm [7]	pest or weed control at 500 ppm [8]	chromatographic logP [9]	inhibition at 20 ppm [10]	inhibition at 20 ppm [11]
Cc1ccc(CC2CON=C(c3cc(C)nnc3Oc3cccc(Cl)c3)N2)c(Br)c1 (racemic) [Compound I-001, (5RS)-5-(2-bromo-4-methylbenzyl)-3-[3-(3-chlorophenoxy)-6-methylpyridazin-4-yl]-5,6-dihydro-4H-1,2,4-oxadiazine]	90 to 100%	90 to 100%	90 to 100%	90 to 100%	90 to 100%	90 to 100%	90 to 100%	90 to 100%	3.94	90 to 100%	90 to 100%
Cc1ccc(CC2CON=C(c3cc(C)nnc3Oc3cccc(Cl)c3)N2)c(C)c1 (racemic) [Compound I-002, (5RS)-3-[3-(3-chlorophenoxy)-6-methylpyridazin-4-yl]-5-(2,4-dimethylbenzyl)-5,6-dihydro-4H-1,2,4-oxadiazine]	90 to 100%	90 to 100%	90 to 100%	90 to 100%	90 to 100%	90 to 100%	90 to 100%	90 to 100%	3.77	90 to 100%	90 to 100%
Cc1ccc(CC2CON=C(c3cc(C)nnc3Oc3cccc(C)c3F)N2)c(Cl)c1 (racemic) [Compound I-003, (5RS)-5-(2-chloro-4-methylbenzyl)-3-[3-(2-fluoro-3-methylphenoxy)-6-methylpyridazin-4-yl]-5,6-dihydro-4H-1,2,4-oxadiazine]	90 to 100%	90 to 100%	90 to 100%	90 to 100%	90 to 100%	90 to 100%	90 to 100%	90 to 100%	3.78	90 to 100%	90 to 100%
Cc1ccc(CC2CON=C(c3cc(C)nnc3Oc3cccc(Cl)c3)N2)c(Cl)c1 (racemic) [Compound I-004, (5RS)-5-(2-chloro-4-methylbenzyl)-3-[3-(3-chlorophenoxy)-6-methylpyridazin-4-yl]-5,6-dihydro-4H-1,2,4-oxadiazine]	90 to 100%	90 to 100%	90 to 100%	90 to 100%	90 to 100%	90 to 100%	90 to 100%	90 to 100%	3.81	90 to 100%	90 to 100%
Cc1cccc(Oc2nnc(Cl)cc2C2=NOCC(Cc3ccc(Cl)cc3Cl)N2)c1F (racemic) [Compound I-005, (5RS)-3-[6-chloro-3-(2-fluoro-3-methylphenoxy)pyridazin-4-yl]-5-(2,4-dichlorobenzyl)-5,6-dihydro-4H-1,2,4-oxadiazine]	90 to 100%	90 to 100%	90 to 100%	90 to 100%	90 to 100%	90 to 100%	90 to 100%	90 to 100%	4.47	90 to 100%	90 to 100%
Cc1ccc(CC2CON=C(c3cc(C)nnc3Oc3cccc(Cl)c3F)N2)c(Br)c1 (racemic) [Compound I-006, (5RS)-5-(2-bromo-4-methylbenzyl)-3-[3-(3-chloro-2-fluorophenoxy)-6-methylpyridazin-4-yl]-5,6-dihydro-4H-1,2,4-oxadiazine]	90 to 100%	90 to 100%	90 to 100%	90 to 100%	90 to 100%	90 to 100%	90 to 100%	90 to 100%	4.01	90 to 100%	90 to 100%
Cc1cc(C)cc(CC2CON=C(c3cc(C)nnc3Oc3cccc(Cl)c3)N2)c1 (racemic) [Compound I-009, (5RS)-3-[3-(3-chlorophenoxy)-6-methylpyridazin-4-yl]-5-(3,5-dimethylbenzyl)-5,6-dihydro-4H-1,2,4-oxadiazine]		90 to 100%			90 to 100%		90 to 100%		3.87	90 to 100%	90 to 100%
CC(O)c1cc(C2=NOCC(Cc3ccc(Cl)cc3Cl)N2)c(Oc2cccc(C3CC3)c2F)nn1 (stereo not shown) [Compound I-023, 1-{6-(3-cyclopropyl-2-fluorophenoxy)-5-[5-(2,4-dichlorobenzyl)-5,6-dihydro-4H-1,2,4-oxadiazin-3-yl]pyridazin-3-yl}ethanol]	90 to 100%		90 to 100%	90 to 100%	90 to 100%	90 to 100%	90 to 100%	90 to 100%	3.87	90 to 100%	90 to 100%

— US12543738B2 (Bayer Aktiengesellschaft, priority 2020, dated 2026)
